1 molecule from patent US20230339854A1, “Negative Allosteric Modulation of GluN3-Containing N-Methyl-D-Aspartate Receptors” (Emory University, priority 2020, published 2023) can be followed below.

“Also recorded” adds a separate entry of the source. Like-named read-outs stand apart in the source and are kept apart here.

For assay [1], the target named is T1, human GluN1^FA,TL/GluN3A receptors (Homo sapiens, UniProt Q8TCU5).
T1 construct: Human GluN3A (NP_597702.2) and rat GluN3B (NP_579842.2) were synthesized and subcloned into SP6 plasmids; expressed in transfected cells; host or cells: Xenopus laevis oocytes, cRNA injection (GluN1:GluN3 1:3)
The experiment in a line: Two-electrode voltage-clamp recordings of GluN1^FA,TL/GluN3A receptors in Xenopus oocytes. It counts as cell-based. Conditions: for % Inhibition GluN1^FATL/GluN3A: fitted maximum at saturating test compound. In outline: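 Human GluN1 with human GluN3A cRNA (1:3) in oocytes, recorded 2-5 days post-injection at 23° C, holding −40 mV, in Ba2+-containing recording solution pH 7.4. Compounds screened at 10 or 30 μM; those inhibiting >20% given concentration-response fits for IC50, Hill slope and residual inhibition.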
In general terms: Two-electrode voltage clamp is typically applied to oocytes expressing channels or transporters.

For assay [2], the target named is T2, human GluN1/GluN3A receptors (Homo sapiens, UniProt Q8TCU5).
T2 construct: Human GluN3A (NP_597702.2) and rat GluN3B (NP_579842.2) were synthesized and subcloned into SP6 plasmids; expressed in transfected cells; host or cells: Xenopus laevis oocytes, cRNA injection
The experiment in a line: Two-electrode voltage-clamp recordings of GluN1/GluN3A receptors in the presence of CGP-78608 (Xenopus oocytes). It counts as cell-based. The text has this:
(§1) cDNA encoding human wild-type (WT) GluN1-1a (GenBank accession numbers NP_015566, hereafter GluN1) and rat GluN1-1a (NP_058706.1) were synthesized and subcloned into pGEMHE plasmid; some experiments used the rat splice variant GluN1-4a (NP_001257531.1). Human GluN3A (NP_597702.2) and rat GluN3B (NP_579842.2) were synthesized and subcloned into SP6 plasmids. For most experiments, human GluN1 was co-expressed with human GluN3A, except for mutagenesis experiments where rat GluN1 was co-expressed with human GluN3A. Rat GluN1-4a was always expressed with rat GluN3B.
(§2) Defolliculated Xenopus laevis oocytes (stage V-VI) were obtained from Ecocyte BioScience (Austin, Texas), or prepared from commercially available Xenopus ovaries (Xenopus 1, Dexter, MI) as previously described (Hansen, et al., Mol. Pharmacol., 2013). A Drummond Nanoject II (Broomall, PA) was used to inject oocytes with cRNAs encoding GluN1 and GluN3 at a 1:3 ratio in RNase-free water. The cRNA was diluted as needed to give responses with amplitudes ranging between 200-2000 nA (0.2-10 ng total cRNA). Following cRNA injection, the oocytes were stored at 15-19° C. in Barth's solution that contained (in mM) 88 NaCl, 2.4 NaHCO3, 1 KCl, 0.33 Ca(NO3)2, 0.41 CaCl2), 0.82 MgSO4, and 5 Tris-HCl (pH 7.4 with NaOH), supplemented with 1 μg/ml streptomycin (Invitrogen, Carlsbad, CA) and 100 μg/ml gentamicin (Fisher Scientific, Pittsburgh, PA). Recordings were performed 2-5 days following cRNA microinjection at room temperature (23° C.) using a two-electrode voltage-clamp amplifier (OC725, Warner Instrument, Hamilton, CT). The signal was low-pass filtered at 10-20 Hz (4-pole, −3 dB Bessel) and digitized at the Nyquist rate using PCI-6025E or USB-6212 BNC data acquisition boards (National Instruments, Austin, TX) using EasyOocyte (http://www.easyoocyte.io/). Oocytes were placed in a custom-made chamber and continuously perfused (2.5 ml/min) with oocyte recording solution containing (in mM) 90 NaCl, 1 KCl, 10 HEPES, 0.5-1.0 BaCl2, and 0.01 EDTA (pH 7.4 with NaOH). Solutions were applied by gravity, and solution exchange was controlled through a rotary valve (Hamilton, Reno, NV). Recording electrodes were filled with 0.3-3.0 M KCl, and current responses were recorded at a holding potential of −40 mV.
(§3) Response (%)=(100−minimum)/(1+([concentration]/IC50)^nH)+minimum (2) • where nH is the Hill slope, IC50 is the concentration that produces a half-maximal effect, and minimum is the degree of residual inhibition at a saturating concentration of the negative allosteric modulator.

In assay [3] the target is T3, human GluN1/GluN3A receptors (Homo sapiens, UniProt Q05586+Q8TCU5).
T3 construct: Human GluN3A (NP_597702.2) and rat GluN3B (NP_579842.2) were synthesized and subcloned into SP6 plasmids; expressed in transfected cells; host or cells: Xenopus laevis oocytes, cRNA injection
The assay is described as above. It is filed as cell-based. The note with it: pH 7.4; 0.5 μM CGP-78608; read-out: EC50, (95% CI) GluN1/GluN3A + CGP.
Source text: as §1, §2, §3

For a further assay, the target named is GluN1/GluN3A channels (Mus musculus, UniProt A2AIR5). The experiment in a line: Nonstationary variance analysis of neuronal glycine-evoked current responses. Conditions: 30 μM; VHOLD −60 mV. It is filed as cell-based. The method, then:
Nonstationary variance analysis (Perszyk, et al., Nat. Chem. Biol., 2020, 16(2), 188-196) was conducted on the deactivation phase of the neuronal glycine-evoked current responses bathed in vehicle (control) or 30 μM EU1180-438 (VHOLD: −60 mV). […] The current was divided into 50 equally spaced segments, and the mean current amplitude of each segment was determined. The current was high pass filtered with a cutoff of 1 Hz, and the current variance was determined for 50 segments. The plot of variance vs. current for each response was fitted by the equation:
Variance=iI−I^2/N • where I is the current amplitude of macroscopic response, i is the weighted mean unitary current, and N is the channel numbers. Virtually identical results were found if the current-variance relationship for all 10 responses for each cell were averaged and then fitted by the foregoing equation. Chord conductance y was determined assuming 0 mV for the reversal potential.
Some allosteric modulators with molecular determinants in the pre-M1 can reduce single channel conductance for glutamate receptors (Perszyk, et al., Nat. Chem. Biol., 2020, 16(2), 188-196; Yuan, et al., ACS Med. Chem. Lett., 2019, 10 (3), 237-242). […]

The subject of assay [4] is GluN1/GluN2 NMDA receptors. Put plainly: Whole-cell patch-clamp of NMDA-activated responses in hippocampal CA1 pyramidal cells, acute brain slices. It counts as cell-based, mouse. The note with it: 30 μM; 0.5 mM NMDA.
[5] abbreviates: 500 nM CGP-78608 plus 100 μM glycine.

T2 sequence (Q8TCU5 24-1115, other chains not shown): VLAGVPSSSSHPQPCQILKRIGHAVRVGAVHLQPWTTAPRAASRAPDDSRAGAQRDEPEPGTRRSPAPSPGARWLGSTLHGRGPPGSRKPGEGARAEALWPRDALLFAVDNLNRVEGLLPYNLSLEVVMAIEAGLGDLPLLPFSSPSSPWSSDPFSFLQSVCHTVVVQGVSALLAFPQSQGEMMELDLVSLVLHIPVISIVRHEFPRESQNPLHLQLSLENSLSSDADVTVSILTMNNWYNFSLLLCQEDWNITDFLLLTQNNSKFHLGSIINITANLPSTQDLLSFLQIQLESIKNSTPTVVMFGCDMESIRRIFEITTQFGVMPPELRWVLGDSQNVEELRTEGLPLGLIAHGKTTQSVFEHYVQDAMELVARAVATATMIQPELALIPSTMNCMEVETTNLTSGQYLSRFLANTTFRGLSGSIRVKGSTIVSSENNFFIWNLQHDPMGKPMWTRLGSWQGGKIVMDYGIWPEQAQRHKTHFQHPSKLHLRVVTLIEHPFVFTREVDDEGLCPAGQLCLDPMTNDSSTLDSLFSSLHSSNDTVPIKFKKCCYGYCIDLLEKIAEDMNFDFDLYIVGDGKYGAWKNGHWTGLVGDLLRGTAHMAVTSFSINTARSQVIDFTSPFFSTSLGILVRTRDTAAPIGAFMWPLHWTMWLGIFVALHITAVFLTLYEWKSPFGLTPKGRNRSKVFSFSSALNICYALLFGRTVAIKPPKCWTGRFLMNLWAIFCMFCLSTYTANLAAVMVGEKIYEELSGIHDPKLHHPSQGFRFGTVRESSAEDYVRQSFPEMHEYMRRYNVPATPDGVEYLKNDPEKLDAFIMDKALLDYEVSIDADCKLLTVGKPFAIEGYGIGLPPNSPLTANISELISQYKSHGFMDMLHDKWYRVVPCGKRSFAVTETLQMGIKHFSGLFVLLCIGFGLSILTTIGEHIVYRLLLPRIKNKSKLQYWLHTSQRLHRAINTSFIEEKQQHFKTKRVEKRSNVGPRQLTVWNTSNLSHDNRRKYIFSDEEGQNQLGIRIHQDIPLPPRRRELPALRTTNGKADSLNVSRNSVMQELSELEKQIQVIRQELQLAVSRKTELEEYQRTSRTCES
T1 sequence (Q8TCU5 24-1115, other chains not shown): as above
Chain of GluN1/GluN3A channels (A2AIR5 27-1135, other chains not shown): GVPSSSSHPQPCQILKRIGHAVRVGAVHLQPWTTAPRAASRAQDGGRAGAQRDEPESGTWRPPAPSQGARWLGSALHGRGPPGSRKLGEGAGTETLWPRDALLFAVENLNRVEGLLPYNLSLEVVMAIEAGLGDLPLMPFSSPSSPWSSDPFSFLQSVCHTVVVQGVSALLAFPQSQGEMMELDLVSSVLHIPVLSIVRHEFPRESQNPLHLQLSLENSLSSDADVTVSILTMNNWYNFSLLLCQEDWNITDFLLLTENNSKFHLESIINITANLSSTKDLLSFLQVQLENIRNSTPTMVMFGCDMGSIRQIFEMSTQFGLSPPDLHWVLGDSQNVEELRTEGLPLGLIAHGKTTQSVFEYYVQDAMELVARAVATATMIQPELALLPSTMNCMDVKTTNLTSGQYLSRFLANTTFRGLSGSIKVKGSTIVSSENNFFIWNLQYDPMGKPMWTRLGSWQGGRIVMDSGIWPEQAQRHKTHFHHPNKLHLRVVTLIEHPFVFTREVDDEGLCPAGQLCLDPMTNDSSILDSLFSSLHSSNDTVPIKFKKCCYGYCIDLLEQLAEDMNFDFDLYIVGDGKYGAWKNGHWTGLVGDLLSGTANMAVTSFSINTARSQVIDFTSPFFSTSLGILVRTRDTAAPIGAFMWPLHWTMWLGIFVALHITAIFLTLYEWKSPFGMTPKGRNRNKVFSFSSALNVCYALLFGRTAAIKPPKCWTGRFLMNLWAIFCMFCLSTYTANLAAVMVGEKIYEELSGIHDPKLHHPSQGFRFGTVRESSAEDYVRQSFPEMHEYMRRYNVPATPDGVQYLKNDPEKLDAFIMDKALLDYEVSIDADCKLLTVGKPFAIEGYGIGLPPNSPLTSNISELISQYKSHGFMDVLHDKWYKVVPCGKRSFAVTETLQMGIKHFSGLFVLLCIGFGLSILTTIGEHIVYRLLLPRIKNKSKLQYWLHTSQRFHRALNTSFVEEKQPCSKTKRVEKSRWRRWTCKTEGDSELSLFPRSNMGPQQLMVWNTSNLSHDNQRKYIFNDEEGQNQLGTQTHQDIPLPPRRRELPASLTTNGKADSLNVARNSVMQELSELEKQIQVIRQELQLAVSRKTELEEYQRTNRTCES
T3 sequence (Q8TCU5 24-1115, other chains not shown): as the sequence (Q8TCU5 24-1115, other chains not shown) above

For `COc1ccc(OCC(c2ccc(OC)cc2)N2Cc3ccccc3C2=O)cc1` (racemic) [EU1180-438, 2-(2-(4-methoxyphenoxy)-1-(4-methoxyphenyl)ethyl)isoindolin-1-one], in assay [1], the “effect of increasing glycine concentration on inhibition” value is recorded as “not altered by increasing glycine concentration”. Further, in assay [1] (4 μM compound), the “voltage dependence of inhibition (current-voltage relationship)” value was “no effect of holding voltage on EU1180-438 inhibition”. The Slope is recorded as 1.24 in assay [1] (concentration-response curve, 1000 μM glycine) and 1.5 in assay [2] (setting [5]). The “% Inhibition GluN1^FATL/GluN3A” value in assay [1] (pH 6.8) is listed as 72%^a, (n = 7); in assay [1] (pH 7.4), 82%, (n = 18). Besides, the “maximal inhibition at saturating concentrations” value in assay [1] (pH 6.8) was found to be 72%. Moreover, the IC50 stood at 4.2 µM in assay [1] (pH 6.8, holding potential −40 mV, read-out: EC50, (95% CI) GluN1^FATL/GluN3A); 4.2 µM in assay [1] (pH 6.8, read-out: IC50); 3.5 µM in assay [1] (pH 7.4, holding potential −40 mV, read-out: EC50, (95% CI) GluN1^FATL/GluN3A); 3.5 µM in assay [1] (responses activated by 1000 μM glycine, pH 7.4, read-out: IC50). For the same molecule, the “inhibition at a saturating concentration” value in assay [1] (pH 7.4) came out at 82%. Moreover, the remaining activity at 10 µM in assay [1] (read-out: response in the presence of compound, % of control) came out at 29 ± 4.2%. Besides, the minimum in assay [1] (residual response at saturating concentration, 1000 μM glycine) is 18%; in assay [2] (setting [5]), 15%. The maximal inhibition in assay [2] (500 nM CGP-78608) is given as 85%. Moreover, the “% Inhibition GluN1/GluN3A + CGP” value in assay [2] (fitted maximum at saturating test compound, pH 7.4, 0.5 μM CGP-78608) is 85%, (n = 9). Also, in assay [3], the EC50 is 1.8 µM. Also, the “average chord conductance of GluN1/GluN3A channels” value at GluN1/GluN3A channels is reported as 6.3±0.90 pS. The “effect on NMDA-activated responses mediated by GluN1/GluN2 NMDA receptors” value in assay [4] is “not modulated; also recorded: did not affect”.

By inhibition is commonly meant the percentage by which the read-out fell short of the control. A high value points to a response far below the control.
